Usually MIC stands for the smallest concentration in the dilution series that meets the test's criterion for growth inhibition. Low readings indicate inhibition by little substance, high ones a need for much substance.

These results are taken from ChEMBL document CHEMBL1146323, “Design, synthesis, and evaluation of efflux substrate-metal chelator conjugates as potential antimicrobial agents” (2007).

In one assay the test system is Bacillus subtilis. In words: Antimicrobial activity against Bacillus subtilis. The format is functional.
The test system of assay [1] is Escherichia coli. In words: Antimicrobial activity against Escherichia coli MC4100 assessed as inhibition zone at >2 mg/mL. The format is functional, organism-based.
Assay [2] deals with Escherichia coli. The experiment in a line: Antimicrobial activity against Escherichia coli MC4100. The format is functional.

Structures are written as SMILES. Values after ≈ are worked out from the molar mass of the structure shown. Active and inactive are the calls of the source.

Compound `O=C(CCN1c2ccccc2Sc2ccc(C(F)(F)F)cc21)NCc1ccc(CN2CCOCCOCCOCCOCC2)cc1` came in with an MIC against Bacillus subtilis of 500 µg/mL (≈ 758 µM). In the assay on Escherichia coli [1], the outcome was inactive.

`NC[C@H]1O[C@H](O[C@H]2[C@H](O)[C@@H](O[C@H]3O[C@H](CO)[C@@H](O)[C@H](N)[C@H]3O)[C@H](N)C[C@@H]2N)[C@H](O)[C@@H](O)[C@@H]1O` [KANAMYCIN] displayed an MIC in the assay on Bacillus subtilis of under 3 µg/mL. For `O=C(CCN1c2ccccc2Sc2ccccc21)NCc1ccc(CN2CCOCCOCCOCCOCC2)cc1`, the minimum inhibitory concentration (MIC) against Bacillus subtilis came to 2000 µg/mL (≈ 3380 µM). Also, the result with Escherichia coli [1] was inactive. In the assay on Bacillus subtilis, `O=C(CCCCCN1c2ccccc2Sc2ccccc21)NCc1ccc(CN2CCOCCOCCOCCOCC2)cc1` showed an MIC of 60 µg/mL (≈ 94.7 µM). For the same compound, the result in the assay with Escherichia coli [1] was inactive. For `O=C(CCN1c2ccccc2Sc2ccc(C(F)(F)F)cc21)NCc1ccc(CN(Cc2ccccn2)Cc2ccccn2)cc1` the same measures were 16 µg/mL (≈ 25 µM) and “inactive”. For `O=C(CCCCCN1c2ccccc2Sc2ccccc21)NCc1ccc(CN(Cc2ccccn2)Cc2ccccn2)cc1` the same measures were 7.8 µg/mL (≈ 12.7 µM) and “inactive”. For `O=C(CCCCCN1c2ccccc2Sc2ccccc21)OCc1ccc(-c2cc(-c3ccccn3)nc(-c3ccccn3)c2)cc1` the same measures were 500 µg/mL (≈ 788 µM) and “inactive”. As to `O=C(CCN1c2ccccc2Sc2ccccc21)NCc1ccc(CN(Cc2ccccn2)Cc2ccccn2)cc1`, it took 30 µg/mL (≈ 52.5 µM) to inhibit growth with Bacillus subtilis (MIC). Further, the result with Escherichia coli [1] was inactive.

With `O=C(CN1c2ccccc2Sc2ccccc21)NCc1ccc(CN2CCCNCCNCCCNCC2)cc1`, the MIC is 2000 µg/mL (≈ 3580 µM) against Escherichia coli [2] and 7.8 µg/mL (≈ 14 µM) against Bacillus subtilis. Turning to `O=C(CCN1c2ccccc2Sc2ccccc21)OCc1ccc(-c2cc(-c3ccccn3)nc(-c3ccccn3)c2)cc1`, in the assay on Escherichia coli [1], the result was inactive. In turn, `CC1(C)S[C@@H]2[C@H](NC(=O)[C@H](N)c3ccccc3)C(=O)N2[C@H]1C(=O)O` [AMPICILLIN] registered a minimal inhibitory concentration (MIC) in the assay on Bacillus subtilis of 25 µg/mL (≈ 71.5 µM). The compound `c1ccc2c(c1)Nc1ccccc1S2` [PHENOTHIAZINE] had an MIC in the assay with Bacillus subtilis of 500 µg/mL (≈ 2510 µM). Compared with the last compound, the MIC is about 20-fold higher.
